# From patent US20100292295A1, “5-OXO-3-PYRROLIDINECARBOXAMIDE DERIVATIVES AS P2X7 MODULATORS” (GLAXO GROUP LIMITED, priority 2007, published 2010)
# Values joined by “and” are separate entries in the source; they are usually repeats but may differ in a detail not shown here. Identical values can stand only once.
# Key:
# [1] = molecular target: T1, human recombinant P2X7 receptors (Homo sapiens, UniProt Q99572); assay: Ethidium Accumulation Assay; format: cell-based; conditions: blocking ATP (1 mM) responses; HEK293 cells expressing human P2X7; read-out: pIC50 in the Ethidium Accumulation Assay (or a slightly modified version thereof), human P2X7 receptor antagonist activity (converted)
# T1 construct: expressed in transfected cells
# T1 sequence (Q99572 1-595): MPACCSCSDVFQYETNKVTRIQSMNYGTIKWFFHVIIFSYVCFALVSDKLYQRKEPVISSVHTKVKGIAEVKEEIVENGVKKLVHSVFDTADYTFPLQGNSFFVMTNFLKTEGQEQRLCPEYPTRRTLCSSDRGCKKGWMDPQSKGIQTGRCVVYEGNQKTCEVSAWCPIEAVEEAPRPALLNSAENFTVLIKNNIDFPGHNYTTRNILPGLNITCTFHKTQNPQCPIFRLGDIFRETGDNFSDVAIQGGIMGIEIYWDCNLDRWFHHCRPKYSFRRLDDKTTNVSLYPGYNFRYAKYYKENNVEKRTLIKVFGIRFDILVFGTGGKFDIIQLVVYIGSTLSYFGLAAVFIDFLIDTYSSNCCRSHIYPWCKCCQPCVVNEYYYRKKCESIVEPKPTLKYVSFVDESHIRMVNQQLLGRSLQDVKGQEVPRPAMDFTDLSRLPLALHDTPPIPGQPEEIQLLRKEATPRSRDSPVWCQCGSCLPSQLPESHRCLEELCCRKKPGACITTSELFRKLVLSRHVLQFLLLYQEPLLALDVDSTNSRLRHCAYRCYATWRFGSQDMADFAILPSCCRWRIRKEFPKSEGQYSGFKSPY
# Protocol: Studies were performed using NaCl assay buffer of the following composition: 140 mM NaCl, 10 mM HEPES [4-(2-hydroxyethyl)-1-piperazine-1-ethanesulfonic acid], 5 mM N-methyl-D-glucamine, 5.6 mM KCl, 10 mM D-glucose, 0.5 mM CaCl2 (pH 7.4).
# Human Embryonic Kidney (HEK) 293 cells, stably expressing human recombinant P2X7 receptors, were grown in poly-D-lysine pretreated 96 well plates for 18-24 hours. (The cloning of the human P2X7 receptor is described in U.S. Pat. No. 6,133,434, e.g. see Example 3 therein). The cells were washed twice with 350 μl of the assay buffer, before addition of 50 μl of the assay buffer containing the putative P2X7 receptor antagonist compound. (A small amount of dimethyl sulfoxide, for initially dissolving the compound, is optionally used and present in this 50 μl test compound sample.) The cells were then incubated at room temperature (19-21° C.) for 30 min before addition of ATP and ethidium (100 μM final assay concentration). The ATP concentration was chosen to be close to the EC80 for the receptor type and was 1 mM for studies on the human P2X7 receptor. Incubations were continued for 8 or 16 min and were terminated by addition of 25 μl of 1.3M sucrose containing 4 mM of the P2X7 receptor antagonist Reactive Black 5 (Aldrich). Cellular accumulation of ethidium was determined by measuring fluorescence (excitation wavelength of 530 nm and emission wavelength of 620 nm) from below the plate with a Canberra Packard Fluorocount (14 Station Road, Pangbourne, Reading, Berkshire RG8 7AN, United Kingdom) or a FlexStation II 384 from Molecular Molecular Devices (660-665 Eskdale Road, Wokingham, Berkshire RG41 5TS, United Kingdom). Antagonist pIC50 values for blocking ATP responses were determined using iterative curve fitting techniques.
# [2] = molecular target: T1, human recombinant P2X7 receptors; assay: Fluorescent Imaging Plate Reader (FLIPR) Ca Assay; format: cell-based; conditions: blocking BzATP (60 μM) responses; HEK293 or U-2OS cells expressing human P2X7; read-out: pIC50 in the FLIPR Ca Assay (or a slightly modified version thereof), human P2X7 receptor antagonist activity (converted)
# Protocol: Studies were performed using NaCl assay buffer of the following composition for human P2X7: 137 mM NaCl; 20 mM HEPES [4-(2-hydroxyethyl)-1-piperazine-1-ethanesulfonic acid]; 5.37 mM KCl; 4.17 mM NaHCO3; 1 mM CaCl2; 0.5 mM MgSO4; and 1 g/L of D-glucose (pH 7.4).
# Human Embryonic Kidney (HEK) 293 cells, stably expressing human recombinant P2X7 receptors, were grown in poly-D-lysine pretreated 384 well plates for 24 hours at […] (for a time sufficient for growth of a homogeneous layer of cells at the bottom of the wells). Alternatively, human osteosarcoma (U-20S) cells (commercially available), transduced with modified Baculovirus (BacMam) vector to deliver the gene coding for human P2X7 receptor (i.e. transiently expressing human recombinant P2X7 receptors), were grown in substantially the same conditions as for the HEK293 cells except that the well plates were not pre-treated with poly-D-lysine. (The cloning of the human P2X7 receptor is described in U.S. Pat. No. 6,133,434, e.g. see Example 3 therein). The cells were washed three times with 80 μl of assay buffer, loaded for 1 h at 37° C. with 2 μM Fluo-4-AM [4-(6-acetoxymethoxy-2,7-difluoro-3-oxo-9-xanthenyl)-4′-methyl-2,2′-(ethylenedioxy)dianiline-N,N,N′,N′-tetraacetic acid tetrakis(acetoxymethyl) ester], a Ca^2+-sensitive, cell-permeable, fluorescent dye (Tef Labs. Inc., 9415 Capitol View Drive, Austin, Tex. 78747, USA), washed three times again (3×80 μl), and left with 30 μl buffer before the addition of 10 μl of the assay buffer containing the putative P2X7 receptor antagonist compound, the compound being added at 4× the final assay concentration chosen. The solution of the putative P2X7 receptor antagonist compound was created by (i) dissolving the compound in dimethyl sulfoxide (DMSO) to create a stock solution in DMSO at 200× the final assay concentration, and (ii) mixing 1 μl of the stock solution of the compound in DMSO with 50 μl of the assay buffer to create a solution at about 4× the final assay concentration. The cells were then incubated at room temperature for 30 mins before addition (online, by FLIPR384 or FLIPR3 instrument (Molecular Devices, 1311 Orleans Drive, Sunnyvale, Calif. 94089-1136, USA)) of benzoylbenzoyl-ATP (BzATP) such as to create a 60 μM final assay concentration of BzATP (BzATP was added at 5× this final concentration). The BzATP concentration was chosen to be close to the EC80 for the receptor type. Incubations and reading were continued for 90 sec, and intracellular calcium increase was determined by measuring fluorescence (excitation wavelength of 488 nm and emission wavelength of 516 nm) from below the plate, with FLIPR charged-coupled device (CCD) camera. Antagonist pIC50 values for blocking BzATP responses were determined using iterative curve fitting techniques.
IC50 [1],IC50 [2],Compound
158 to 200 nM,,"CN1CC(C(=O)NCc2cccc(C(F)(F)F)c2Cl)CC1=O (single isomer, unassigned) [5A stereoisomer 1]"
39.8 to 50.1 nM,,"CN1CC(C(=O)NCc2cccc(C(F)(F)F)c2Cl)CC1=O (single isomer, unassigned) [5A stereoisomer 2]"
< 3160 nM,≤ 20000 nM,"C[C@H](c1ccccc1)N1CC(C(=O)NCc2ccc(F)cc2Cl)CC1=O (stereo partly drawn) [Example 1, N-[(2-chloro-4-fluorophenyl)methyl]-5-oxo-1-[(1R)-1-phenylethyl]-3-pyrrolidinecarboxamide]"
< 3160 nM,≤ 20000 nM,"O=C(NCc1ccc(F)cc1Cl)C1CC(=O)N(C2CC2)C1 (centres unmarked) [Example 2, N-[(2-Chloro-4-fluorophenyl)methyl]-1-cyclopropyl-5-oxo-3-pyrrolidinecarboxamide]"
< 3160 nM and 31.6 to 316 nM,≤ 20000 nM,"O=C(NCc1ccc(Cl)cc1Cl)C1CC(=O)N(C2CC2)C1 (centres unmarked) [Example 3, 1-Cyclopropyl-N-[(2,4-dichlorophenyl)methyl]-5-oxo-3-pyrrolidinecarboxamide]"
< 3160 nM and 31.6 to 316 nM,≤ 20000 nM,"O=C(NCc1cccc(C(F)(F)F)c1Cl)C1CC(=O)N(C2CC2)C1 (centres unmarked) [Example 4, N-{[2-chloro-3-(trifluoromethyl)phenyl]methyl}-1-cyclopropyl-5-oxo-3-pyrrolidinecarboxamide]"
< 3160 nM and 31.6 to 316 nM and 50.1 to 63.1 nM,≤ 20000 nM,"CN1CC(C(=O)NCc2cccc(C(F)(F)F)c2Cl)CC1=O (centres unmarked) [Example 5, N-{[2-chloro-3-(trifluoromethyl)phenyl]methyl}-1-methyl-5-oxo-3-pyrrolidinecarboxamide]"
< 3160 nM and 31.6 to 316 nM,≤ 20000 nM,"CN1CC(C(=O)NCc2ccc(Cl)cc2Cl)CC1=O (centres unmarked) [Example 6, N-[(2,4-dichlorophenyl)methyl]-1-methyl-5-oxo-3-pyrrolidinecarboxamide]"
< 3160 nM and 31.6 to 316 nM,≤ 20000 nM,"CCN1CC(C(=O)NCc2ccc(Cl)cc2Cl)CC1=O (centres unmarked) [Example 7, N-[(2,4-dichlorophenyl)methyl]-1-ethyl-5-oxo-3-pyrrolidinecarboxamide]"
< 3160 nM and 31.6 to 316 nM,≤ 20000 nM,"CCN1CC(C(=O)NCc2cccc(C(F)(F)F)c2Cl)CC1=O (centres unmarked) [Example 8, N-{[2-chloro-3-(trifluoromethyl)phenyl]methyl}-1-ethyl-5-oxo-3-pyrrolidinecarboxamide]"
< 3160 nM and 31.6 to 316 nM,≤ 20000 nM,"CC(C)CN1CC(C(=O)NCc2cccc(C(F)(F)F)c2Cl)CC1=O (centres unmarked) [Example 9, N-{[2-chloro-3-(trifluoromethyl)phenyl]methyl}-1-(2-methylpropyl)-5-oxo-3-pyrrolidinecarboxamide]"
< 3160 nM and 31.6 to 316 nM,≤ 20000 nM,"CC(C)CN1CC(C(=O)NCc2ccc(Cl)cc2Cl)CC1=O (centres unmarked) [Example 10, N-[(2,4-dichlorophenyl)methyl]-1-(2-methylpropyl)-5-oxo-3-pyrrolidinecarboxamide]"
< 3160 nM and 31.6 to 316 nM,≤ 20000 nM,"O=C(NCc1cccc(C(F)(F)F)c1Cl)C1CC(=O)N(Cc2ccccc2)C1 (centres unmarked) [Example 11, N-{[2-chloro-3-(trifluoromethyl)phenyl]methyl}-5-oxo-1-(phenylmethyl)-3-pyrrolidinecarboxamide]"
< 3160 nM and 31.6 to 316 nM,≤ 20000 nM,"O=C(NCc1ccc(Cl)cc1Cl)C1CC(=O)N(Cc2ccccc2)C1 (centres unmarked) [Example 12, N-[(2,4-dichlorophenyl)methyl]-5-oxo-1-(phenylmethyl)-3-pyrrolidinecarboxamide]"
